One may read the IC50 as the concentration that gives 50% inhibition. Read a low IC50 as higher potency.

Our source for the IC50 values is ChEMBL document CHEMBL1128900, “Non-peptidic inhibitors of neutral endopeptidase 24.11 1. Discovery and optimization of potency” (Bioorg Med Chem Lett, 1995).

Where only a bound is given, the exact number is not on record here.

The target in the experiment is T1, Neprilysin (Rattus norvegicus, UniProt P07861).
T1 sequence (P07861 whole entry): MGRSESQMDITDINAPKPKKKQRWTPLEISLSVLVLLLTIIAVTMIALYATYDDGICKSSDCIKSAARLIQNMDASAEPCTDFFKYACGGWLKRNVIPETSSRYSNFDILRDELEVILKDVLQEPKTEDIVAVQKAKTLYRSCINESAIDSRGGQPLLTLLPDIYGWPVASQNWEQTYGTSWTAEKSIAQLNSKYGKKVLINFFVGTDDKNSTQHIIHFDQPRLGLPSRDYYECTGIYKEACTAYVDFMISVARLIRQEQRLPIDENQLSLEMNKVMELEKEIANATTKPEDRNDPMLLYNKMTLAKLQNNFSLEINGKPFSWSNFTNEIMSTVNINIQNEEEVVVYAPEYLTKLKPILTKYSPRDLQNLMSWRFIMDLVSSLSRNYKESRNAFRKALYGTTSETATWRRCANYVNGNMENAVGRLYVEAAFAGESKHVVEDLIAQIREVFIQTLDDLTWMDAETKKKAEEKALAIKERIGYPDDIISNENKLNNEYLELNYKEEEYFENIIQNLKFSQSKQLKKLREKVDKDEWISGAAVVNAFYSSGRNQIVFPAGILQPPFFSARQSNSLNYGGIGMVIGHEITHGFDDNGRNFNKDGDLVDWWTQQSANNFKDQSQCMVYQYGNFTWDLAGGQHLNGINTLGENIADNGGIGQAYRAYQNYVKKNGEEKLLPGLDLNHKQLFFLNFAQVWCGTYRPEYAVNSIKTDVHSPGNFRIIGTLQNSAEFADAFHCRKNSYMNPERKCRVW
Put plainly: In vitro inhibitory activity against neutral endopeptidase (NEP).
For `O=C(O)[C@H](Cc1ccccc1)NCP(=O)(O)O`, the IC50 was more than 1000 nM.

`O=P(O)(O)CN[C@@H](Cc1ccc(-c2ccccc2)cc1)c1nnnn1Cc1ccccc1`: the concentration for half-maximal inhibition (IC50) was more than 1000 nM.

As for `CN(CP(=O)(O)O)[C@@H](Cc1ccc(-c2ccccc2)cc1)c1nnn[nH]1`, the IC50 is 530 nM. That is a sub-micromolar value.

Take `Cc1ccc(-c2ccc(C[C@H](NCP(=O)(O)O)C(=O)O)cc2)cc1`: the half-maximal inhibitory concentration (IC50) is 236 nM.

Consider `O=C(O)/C=C/[C@H](Cc1ccc(-c2ccccc2)cc1)NCP(=O)(O)O`, for which the 50% inhibitory concentration (IC50) turned out to be 32 nM.

In turn, `O=C(O)[C@H](Cc1ccc(-c2ccccc2)cc1)NCCP(=O)(O)O` registered a half-maximal inhibitory concentration (IC50) of more than 10000 nM.

Consider `O=P(O)(O)CN[C@@H](Cc1ccccc1)c1nnn[nH]1`, for which the IC50 turned out to be 26 nM.

The molecule `O=C(O)C[C@H](Cc1ccc(-c2ccccc2)cc1)NCP(=O)(O)O` showed an IC50 of 15 nM.

The molecule `O=C(Nc1nn[nH]n1)[C@H](Cc1ccc(-c2ccccc2)cc1)NCP(=O)(O)O` yielded a concentration for half-maximal inhibition (IC50) of 1.4 nM.

`O=C(O)[C@H](Cc1ccc(-c2cccnc2)cc1)NCP(=O)(O)O` displayed an IC50 of more than 1000 nM.

`COc1cc(C[C@H](NCP(=O)(O)O)c2nnn[nH]2)ccc1-c1ccccc1` showed a half-maximal inhibitory concentration (IC50) of 1.5 nM.

As to `O=C(O)CC[C@H](Cc1ccc(-c2ccccc2)cc1)NCP(=O)(O)O`, inhibition was half-maximal at 643 nM (IC50).

As for `O=P(O)(O)CN[C@@H](Cc1ccc2ccccc2c1)c1nnn[nH]1`, the half-inhibitory concentration (IC50) came to 364 nM.

The molecule `O=C(O)CCNC(=O)[C@H](Cc1ccc(-c2ccccc2)cc1)NCP(=O)(O)O` gave an IC50 of 1900 nM.

`CC(C)Oc1ccc(C[C@H](NCP(=O)(O)O)c2nnn[nH]2)cc1` gave a half-maximal inhibitory concentration (IC50) of 15 nM.

For `O=C(O)C(Cc1ccccc1-c1ccccc1)NCP(=O)(O)O` (configuration not stated), the IC50 is more than 1000 nM.

Consider `COc1cc(C[C@H](NCP(=O)(O)O)C(=O)O)ccc1-c1ccccc1`, for which the IC50 worked out at 14 nM. This lies in the double-digit nanomolar range.

For the molecule `O=C(NCc1ccccc1)[C@H](Cc1ccc(-c2ccccc2)cc1)NCP(=O)(O)O`, the IC50 worked out at 308 nM.

`NC(=O)[C@H](Cc1ccc(-c2ccccc2)cc1)NCP(=O)(O)O` showed an IC50 of 1300 nM.

In turn, `O=P(O)(O)CN[C@@H](CCc1ccccc1)c1nnn[nH]1` returned an IC50 of more than 10000 nM.

Molecule `O=C(O)C(Cc1cccc(-c2ccccc2)c1)NCP(=O)(O)O` (configuration not stated) gave an IC50 of more than 1000 nM.

As for `O=P(O)(O)CNC(c1nnn[nH]1)C(c1ccccc1)c1ccccc1` (configuration not stated), the IC50 was more than 1000 nM.
